# In patent US6511997B1, “Aminopyrazole derivatives” (Teikoku Hormone Mfg. Co., Ltd., priority 1998, dated 2003):
row,SMILES,melting point
1,"Cn1nc(-c2ccc(F)cc2)c(-c2ccncc2)c1NC(=O)Cc1ccc(F)cc1Cl [Example 39, 5-(2-Chloro-4-fluorophenylacetylamino)-3-(4-fluorophenyl)-1-methyl-4-(4-pyridyl)pyrazole]",229 to 232.7 °C
2,"CC(C)(C)OC(=O)N1CCC[C@H]1C(=O)Nc1n[nH]c(-c2ccc(F)cc2)c1-c1ccncc1 [Example 88, 3-(N′-Carbo-t-butoxy-L-prolylamino)-5-(4-fluorophenyl)-4-(4-pyridyl)pyrazole]",124.6 to 125.7 °C
3,"Cn1nc(-c2ccc(F)cc2)c(-c2ccncc2)c1NC(=O)Cc1ccccc1Cl [Example 56, 5-(2-Chlorophenylacetylamino)-3-(4-fluorophenyl)-1-methyl-4-(4-pyridyl)pyrazole]",215.9 to 217.8 °C
4,"Cn1nc(-c2ccc(F)cc2)c(-c2ccncc2)c1NC(=O)Cc1cc(F)ccc1F [Example 35, 5-(2,5-difluorophenylacetylamino)-3-(4-fluorophenyl)-1-methyl-4-(4-pyridyl)pyrazole]",207 to 208 °C
5,"Cn1nc(-c2ccc3c(c2)OCO3)c(-c2ccncc2)c1NC(=O)Cc1ccccc1 [Example 109, 1-methyl-3-(3,4-methylenedioxyphenyl)-5-phenylacetylamino-4-(4-pyridyl)pyrazole]",127.5 to 132.1 °C
6,"Cn1nc(-c2ccc(F)cc2)c(-c2ccncc2)c1NC(=O)Cc1c(Cl)cccc1Cl [Example 38, 5-(2,6-Dichlorophenylacetylamino)-3-(4-fluorophenyl)-1-methyl-4-(4-pyridyl)pyrazole]",252.5 to 256.7 °C
7,"Cn1nc(-c2ccc(F)cc2)c(-c2ccncc2)c1NC(=O)Cc1ccccc1F [Example 60, 3-(4-Fluorophenyl)-5-(2-fluorophenylacetylamino)-1-methyl-4-(4-pyridyl)pyrazole]",196.8 to 198.1 °C
8,"Cn1nc(-c2ccc(F)cc2)c(-c2ccncc2)c1NC(=O)Cc1cc(F)cc(F)c1 [Example 48, 5-(3,5-Difluorophenylacetylamino)-3-(4-fluorophenyl)-1-methyl-4-(4-pyridyl)pyrazole]",208.5 to 210.2 °C
9,"Cc1ccccc1CC(=O)Nc1c(-c2ccncc2)c(-c2ccc(F)cc2)nn1C [Example 67, 3-(4-Fluorophenyl)-1-methyl-5-(2-methylphenylacetylamino)-4-(4-pyridyl)pyrazole]",197.6 to 200.5 °C
10,"CC(C)[C@H](NC(=O)OCc1ccccc1)C(=O)Nc1n[nH]c(-c2ccc(F)cc2)c1-c1ccncc1 [Example 85, 3-(N′-carbobenzoxy-L-valylamino)-5-(4-fluorophenyl)-4-(4-pyridyl)pyrazole]",231.1 °C
11,"Cn1nc(-c2ccc(F)cc2)c(-c2ccncc2)c1NC(=O)Cc1cccnc1 [Example 77, 3-(4-Fluorophenyl)-1-methyl-4-(4-pyridyl)-5-(3-pyridylacetylamino)pyrazole]",220 to 220.9 °C
12,"O=C(Nc1n[nH]c(-c2ccc(F)cc2)c1-c1ccncc1)c1ccccc1 [Example 13, 3-Benzoylamino-5-(4-fluorophenyl)-4-(4-pyridyl)pyrazole]",270.5 to 276.1 °C
13,"O=C(Nc1n[nH]c(-c2ccc(F)cc2)c1-c1ccncc1)C(c1ccccc1)c1ccccc1 [Example 32, 3-Diphenylacetylamino-5-(4-fluorophenyl)-4-(4-pyridyl)pyrazole]",266.5 to 269.2 °C
14,"CCC(=O)Nc1n[nH]c(-c2ccc(F)cc2)c1-c1ccncc1 [Example 17, 5-(4-Fluorophenyl)-3-propionylamino-4-(4-pyridyl)pyrazole]",272 to 275 °C
15,"Cn1nc(-c2ccc(F)cc2)c(-c2ccncc2)c1NC(=O)Cc1ccc(OCc2ccccc2)cc1 [Example 70, 5-(4-Benzyloxyphenylacetylamino)-3-(4-fluorophenyl)-1-methyl-4-(4-pyridyl)pyrazole]",147.8 to 150.1 °C
16,"Cn1nc(-c2ccc(F)cc2)c(-c2ccncc2)c1NC(=O)Cc1ccc(Cl)cc1Cl [Example 41, 5-(2,4-Dichlorophenylacetylamino)-3-(4-fluorophenyl)-1-methyl-4-(4-pyridyl)pyrazole]",224.3 to 225.4 °C
17,"O=C(Cc1ccc(C(F)(F)F)cc1)Nc1n[nH]c(-c2ccc(F)cc2)c1-c1ccncc1 [Example 8, 5-(4-Fluorophenyl)-4-(4-pyridyl)-3-(4-trifluoromethylphenylacetylamino)pyrazole]",282.1 to 288.4 °C
18,"O=C(CO)Nc1n[nH]c(-c2ccc(F)cc2)c1-c1ccncc1 [Example 14, 5-(4-Fluorophenyl)-3-hydroxyacetylamino-4-(4-pyridyl)pyrazole]",264 to 266 °C
19,"CC(C(=O)Nc1n[nH]c(-c2ccc(F)cc2)c1-c1ccncc1)c1ccccc1 (stereo not shown) [Example 5, 5-(4-Fluorophenyl)-3-(2-phenylpropionylamino)-4-(4-pyridyl)pyrazole]",240.6 to 241 °C
20,C[C@H](N)C(=O)Nc1n[nH]c(-c2ccc(F)cc2)c1-c1ccncc1.Cl,210.2 to 211.5 °C
21,"O=C(Cc1ccccc1Cl)Nc1c(-c2ccncc2)c(-c2ccc(F)cc2)nn1-c1ccccc1 [Example 107, 5-(2-chlorophenylacetylamino)-3-(4-fluorophenyl)-1-phenyl-4-(4-pyridyl)pyrazole]",265.2 to 268 °C
22,"Cn1nc(-c2ccc(F)cc2)c(-c2ccncc2)c1NC(=O)Cc1c[nH]c2ccccc12 [Example 82, 3-(4-Fluorophenyl)-5-(indol-3-ylacetylamino)-1-methyl-4-(4-pyridyl)pyrazole]",66.9 to 68.8 °C
23,"CC(C)(C)C(=O)Nc1n[nH]c(-c2ccc(F)cc2)c1-c1ccncc1 [Example 21, 5-(4-Fluorophenyl)-4-(4-pyridyl)-3-pivaloylaminopyrazole]",217.9 to 220.6 °C
24,"Cn1nc(-c2ccc(F)cc2)c(-c2ccncc2)c1NC(=O)Cc1cc(C(F)(F)F)cc(C(F)(F)F)c1 [Example 45, 5-(3,5-Ditrifluoromethylphenylacetylamino)-3-(4-fluorophenyl)-1-methyl-4-(4-pyridyl)pyrazole]",228.3 to 230.6 °C
25,"CCn1nc(-c2ccc(F)cc2)c(-c2ccncc2)c1NC(=O)Cc1ccccc1Cl [Example 98, 5-(2-Chlorophenylacetylamino)-1-ethyl-3-(4-fluorophenyl)-4-(4-pyridyl)pyrazole]",226 to 232.3 °C
26,"O=C(CC1CCCCC1)Nc1n[nH]c(-c2ccc(F)cc2)c1-c1ccncc1 [Example 23, 3-cyclohexylacetylamino-5-(4-fluorophenyl)-4-(4-pyridyl)pyrazole]",296.3 to 299.9 °C
27,"Nc1ccccc1CC(=O)Nc1n[nH]c(-c2ccc(F)cc2)c1-c1ccncc1 [Example 93, 5-(4-fluorophenyl)-3-(2-aminophenylacetylamino)-4-(4-pyridyl)pyrazole]",196.3 to 197.1 °C
28,"O=C(Cc1ccc(Cl)cc1)Nc1n[nH]c(-c2ccc(F)cc2)c1-c1ccncc1 [Example 6, 3-(4-Chlorophenylacetylamino)-5-(4-fluorophenyl)-4-(4-pyridyl)pyrazole]",273.2 to 277.3 °C

# The remaining lines, values ahead:
row,melting point,SMILES
1,169.8 to 171.1 °C,"CN(C(=O)Cc1ccccc1)c1nn(C)c(-c2ccc(F)cc2)c1-c1ccncc1 [Example 119, 5-(4-fluorophenyl)-1-methyl-3-(N-methyl-N-phenylacetylamino)-4-(4-pyridyl)pyrazole]"
2,205.7 to 207.8 °C,"CN(C(=O)Cc1c(Cl)cccc1Cl)c1c(-c2ccncc2)c(-c2ccc(F)cc2)nn1C [Example 122, 5-[N-(2,6-dichlorophenylacetyl)-N-methylamino]-3-(4-fluorophenyl)-1-methyl-4-(4-pyridyl)pyrazole]"
3,168.5 to 171.2 °C,"CN(C(=O)Cc1ccccc1)c1c(-c2ccncc2)c(-c2ccc(F)cc2)nn1C [Example 120, 3-(4-Fluorophenyl)-1-methyl-5-(N-methyl-N-phenylacetylamino)-4-(4-pyridyl)pyrazole]"
4,206.9 to 208.7 °C,"Cn1nc(-c2ccc3c(c2)OCO3)c(-c2ccncc2)c1NC(=O)Cc1ccc(F)c(Cl)c1 [Example 110, 5-(3-Chloro-4-fluorophenylacetylamino)-1-methyl-3-(3,4-methylenedioxyphenyl)-4-(4-pyridyl)pyrazole]"
5,157.6 to 160.1 °C,"Cn1nc(NC(=O)Cc2ccccc2)c(-c2ccncc2)c1-c1ccc(F)cc1 [Example 116, 5-(4-fluorophenyl)-1-methyl-3-phenylacetylamino-4-(4-pyridyl)pyrazole]"
6,168.6 to 171.2 °C,"CN(C(=O)Cc1ccccc1Cl)c1c(-c2ccncc2)c(-c2ccc(F)cc2)nn1C [Example 121, 5-[N-(2-chlorophenylacetyl)-N-methylamino]-3-(4-fluorophenyl)-1-methyl-4-(4-pyridyl)pyrazole]"
7,194.7 to 196 °C,"Cn1nc(-c2ccc(F)c(Cl)c2)c(-c2ccncc2)c1NC(=O)Cc1c(F)c(F)c(F)c(F)c1F [Example 114, 3-(3-Chloro-4-fluorophenyl)-1-methyl-5-(2,3,4,5,6-pentafluorophenylacetylamino)4-(4-pyridyl)pyrazole]"
8,221.2 to 221.5 °C,"Cc1ccc(S(=O)(=O)Nc2n[nH]c(-c3ccc(F)cc3)c2-c2ccncc2)cc1 [Example 140, 5-(4-Fluorophenyl)-4-(4-pyridyl)-3-(p-toluenesulfonylamino)pyrazole]"
9,198.4 to 199.1 °C,"Cn1nc(-c2ccc(Cl)c(Cl)c2)c(-c2ccncc2)c1NC(=O)Cc1ccccc1 [Example 111, 3-(3,4-Dichlorophenyl)-1-methyl-5-phenylacetylamino-4-(4-pyridyl)pyrazole]"
10,144 to 145.2 °C,"CN(C(=O)Cc1ccccn1)c1c(-c2ccncc2)c(-c2ccc(F)cc2)nn1C [Example 129, 3-(4-Fluorophenyl)-1-methyl-5-[N-methyl-N-(2-pyridylacetyl)amino]-4-(4-pyridyl)pyrazole]"
11,124.5 to 127.3 °C,"CCCn1nc(-c2ccc(F)cc2)c(-c2ccncc2)c1N(C)C(=O)Cc1ccccc1 [Example 128, 3-(4-Fluorophenyl)-5-(N-methyl-N-phenylacetylamino)-1-propyl-4-(4-pyridyl)pyrazole]"
12,164.9 to 166.5 °C,"Cn1nc(-c2ccc(F)cc2)c(-c2ccncc2)c1NC(=O)Cc1ccccc1 [Example 117, 3-(4-Fluorophenyl)-1-methyl-5-phenylacetylamino-4-(4-pyridyl)pyrazole]"
